The results in this text go back to patent US11453697B1, “Cyclic di-nucleotide compounds as sting agonists” (Merck Sharp & Dohme Corp., priority 2015, dated 2022).

Each structure is given as a SMILES string. Like-named read-outs stand apart in the source and are kept apart here.

Assay [1] deals with full-length HAQ STING (Homo sapiens (Human), UniProt Q86WV6, G230A/H232R/R293Q/R71H). The assay can be described thus: 3H-cGAMP filtration binding assay (HAQ STING). The following applies: competition with tritiated cGAMP, HAQ STING membrane; read-out: EC50 (nM), 3H-cGAMP filtration binding assay for HAQ STING. The source says:
The ability of compounds to bind STING is quantified by the ability to compete with tritiated cGAMP ligand for human STING receptor membrane using a radioactive filter-binding assay. The binding assay employs STING receptor obtained from Hi-Five cell membranes overexpressing full-length HAQ STING prepared in-house and tritiated cGAMP ligand also purified in-house.
The ability of compounds to bind STING is quantified by their ability to compete with tritiated cGAMP ligand for human STING receptor membrane using a radioactive filter-binding assay.
The basic HAQ STING filtration assay protocol is as follows:
Compound and membrane then preincubated for 60 min at RT to allow compound binding to equilibrate. Following equilibration, 8 nM of [^3H] c-GAMP ligand was prepared by diluting into assay buffer, and 50 uL of this working stock was then manually added to each well of the assay plate. […] The filter plates were then dried at 55° C. for 30 min using a pressurized VWR oven before 30 uL of Ultima GoldF scintillate was added to each well. Tritium levels for each reaction well were then measured using a PerkinElmer TopCount plate reader.
After normalization to controls, the percent activity for each compound concentration was calculated by measuring the amount of remaining radioactivity. The plot of percent activity versus the log of compound concentration was fit with a 4-parameter dose response equation to calculate EC50 values.

Assay [2] has as its system IFN-β secretion in THP1 cells. The assay can be described thus: IFN-β secretion in THP1 cell culture (5 h). The class given is cell-based, human. A digest of the protocol:
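THP1 cells incubated with compound for 5 h at 37 °C, 5% CO2, and secreted IFN-β in supernatant quantified by AlphaLISA. Percent effect normalised to 30 uM cGAMP positive control and 0.3% DMSO. EC50 from 4-parameter fit.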

The mark [3] stands for this setting: IFN-β secretion in THP1 cell culture, 5 h, compound at 30 μM, percent activation relative to 2′3′-cGAMP.

full-length HAQ STING, sequence (Q86WV6 other isoform, or with tags, fused parts or gaps, stated change not applied): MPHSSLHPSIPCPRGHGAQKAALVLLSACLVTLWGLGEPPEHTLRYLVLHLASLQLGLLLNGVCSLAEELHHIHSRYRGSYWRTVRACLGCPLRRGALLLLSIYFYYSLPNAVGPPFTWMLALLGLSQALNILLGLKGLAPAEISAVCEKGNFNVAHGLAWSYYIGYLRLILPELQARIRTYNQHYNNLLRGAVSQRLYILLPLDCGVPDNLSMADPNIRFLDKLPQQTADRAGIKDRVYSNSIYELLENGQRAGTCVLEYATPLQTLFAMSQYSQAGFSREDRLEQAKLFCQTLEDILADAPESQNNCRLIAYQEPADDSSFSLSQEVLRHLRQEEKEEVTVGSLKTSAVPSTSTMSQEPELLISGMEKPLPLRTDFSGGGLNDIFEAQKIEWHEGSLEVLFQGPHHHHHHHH

For `Nc1nc2c(ncn2[C@@H]2O[C@@H]3COP(=O)(O)O[C@H]4[C@@H](O)[C@H](n5cnc6c(N)nc(F)nc65)O[C@@H]4COP(=O)(O)O[C@@H]2[C@@H]3O)c(=O)[nH]1` [Example 34, 2-amino-9-[(5R,7R,8R,12aR,14R,15R,15aS,16R)-14-(6-amino-2-fluoro-9H-purin-9-yl)-2,10,15,16-tetrahydroxy-2,10-dioxidooctahydro-12H-5,8-methanofuro[3,2-l][1,3,6,9,11,2,10]pentaoxadiphosphacyclotetradecin-7-yl]-1,9-dihydro-6H-purin-6-one], in assay [1], the EC50 worked out at 24.6 nM. Also, in assay [2] (setting [3]), the “% Effect at 30 μM relative to 2′3′-cGAMP” value came out at 125%.

For the compound `Nc1ncnc2c1ccn2[C@@H]1O[C@@H]2COP(=O)(O)O[C@@H]3[C@H](O)[C@@H](COP(=O)(O)O[C@H]2[C@H]1O)O[C@H]3n1cnc2c(=O)[nH]cnc21` [Example 35, 9-[(5R,7R,8R,12aR,14R,15R,15aS,16R)-14-(4-amino-7H-pyrrolo[2,3-d]pyrimidin-7-yl)-2,10,15,16-tetrahydroxy-2,10-dioxidooctahydro-12H-5,8-methanofuro[3,2-l][1,3,6,9,11,2,10]pentaoxadiphosphacyclotetradecin-7-yl]-1,9-dihydro-6H-purin-6-one], the EC50 in assay [1] is 7.9 nM. The “% Effect at 30 μM relative to 2′3′-cGAMP” value in assay [2] (setting [3]) is on record as 51%.

Regarding `NC[C@H]1[C@H]2OP(=O)(O)OC[C@H]3O[C@@H](n4cnc5c(N)ncnc54)[C@H](O)[C@@H]3OP(=O)(O)OC[C@H]1O[C@H]2n1cnc2c(=O)[nH]c(N)nc21` [Example 36, 2-amino-9-[(5S,7R,8R,12aR,14R,15R,15aS,16R)-16-(aminomethyl)-14-(6-amino-9H-purin-9-yl)-2,10,15-trihydroxy-2,10-dioxidooctahydro-12H-5,8-methanofuro[3,2-l][1,3,6,9,11,2,10]pentaoxadiphosphacyclotetradecin-7-yl]-1,9-dihydro-6H-purin-6-one], the EC50 in assay [1] turned out to be 21.5 nM. In addition, the “% Effect at 30 μM relative to 2′3′-cGAMP” value in assay [2] (setting [3]) came to 120%.

For the compound `Nc1nc2c(ccn2[C@@H]2O[C@@H]3COP(=O)(O)O[C@H]4[C@@H](O)[C@H](n5ccc6c(N)ncnc65)O[C@@H]4COP(=O)(O)O[C@@H]2[C@@H]3O)c(=O)[nH]1` [Example 37, 2-amino-7-[(5R,7R,8R,12aR,14R,15R,15aS,16R)-14-(4-amino-7H-pyrrolo[2,3-d]pyrimidin-7-yl)-2,10,15,16-tetrahydroxy-2,10-dioxidooctahydro-12H-5,8-methanofuro[3,2-l][1,3,6,9,11,2,10]pentaoxadiphosphacyclotetradecin-7-yl]-3,7-dihydro-4H-pyrrolo[2,3-d]pyrimidin-4-one], the EC50 in assay [1] was found to be 620 nM. For the same compound, in assay [2] (setting [3]), the “% Effect at 30 μM relative to 2′3′-cGAMP” value was determined as 57%.

As for `Nc1nc2c(ncn2[C@@H]2O[C@@H]3COP(=O)(O)O[C@H]4[C@@H](O)[C@H](c5cnc6c(N)ncnn56)O[C@@H]4COP(=O)(O)O[C@@H]2[C@@H]3O)c(=O)[nH]1` [Example 40, 2-amino-9-[(5R,7R,8R,12aR,14S,15S,15aS,16R)-14-(4-aminoimidazo[2,1-f][1,2,4]triazin-7-yl)-2,10,15,16-tetrahydroxy-2,10-dioxidooctahydro-12H-5,8-methanofuro[3,2-l][1,3,6,9,11,2,10]pentaoxadiphosphacyclotetradecin-7-yl]-1,9-dihydro-6H-purin-6-one], the EC50 in assay [1] came to 3.2 nM. Moreover, in assay [2] (setting [3]), the “% Effect at 30 μM relative to 2′3′-cGAMP” value is reported as 77%.

In the case of `Nc1nc2c(ncn2[C@@H]2O[C@@H]3COP(=O)(O)O[C@H]4[C@@H](O)[C@H](c5n[nH]c6c(N)ncnc56)O[C@@H]4COP(=O)(O)O[C@@H]2[C@@H]3O)c(=O)[nH]1` [Example 49, 2-amino-9-[(5R,7R,8R,12aR,14S,15S,15aS,16R)-14-(7-amino-1H-pyrazolo[4,3-d]pyrimidin-3-yl)-2,10,15,16-tetrahydroxy-2,10-dioxidooctahydro-12H-5,8-methanofuro[3,2-l][1,3,6,9,11,2,10]pentaoxadiphosphacyclotetradecin-7-yl]-1,9-dihydro-6H-purin-6-one], the EC50 in assay [1] was found to be 30 nM. Further, the “% Effect at 30 μM relative to 2′3′-cGAMP” value in assay [2] (setting [3]) amounted to 74%.

`Nc1ncnc2c1ncn2[C@@H]1O[C@@H]2COP(=O)(O)O[C@@H]3C[C@@H](COP(=O)(O)O[C@H]2[C@H]1O)O[C@H]3n1cnc2c(=O)[nH]cnc21` [Example 50, 9-[(5S,7R,8R,12aR,14R,15R,15aS)-14-(6-amino-9H-purin-9-yl)-2,10,15-trihydroxy-2,10-dioxidooctahydro-12H-5,8-methanofuro[3,2-l][1,3,6,9,11,2,10]pentaoxadiphosphacyclotetradecin-7-yl]-1,9-dihydro-6H-purin-6-one]: the EC50 in assay [1] stood at 2.7 nM. Moreover, the “% Effect at 30 μM relative to 2′3′-cGAMP” value in assay [2] (setting [3]) amounted to 85%.

For the compound `Nc1nc2c(ncn2[C@@H]2O[C@@H]3COP(=O)(O)O[C@H]4[C@@H](O)[C@H](n5cnc6c(N)ncnc65)O[C@@H]4COP(=O)(O)O[C@@H]2[C@@H]3O)c(=S)[nH]1` [Example 53, 2-amino-9-[(5R,7R,8R,12aR,14R,15R,15aS,16R)-14-(6-amino-9H-purin-9-yl)-2,10,15,16-tetrahydroxy-2,10-dioxidooctahydro-12H-5,8-methanofuro[3,2-l][1,3,6,9,11,2,10]pentaoxadiphosphacyclotetradecin-7-yl]-1,9-dihydro-6H-purine-6-thione], the EC50 in assay [1] came to 1.7 nM. The “% Effect at 30 μM relative to 2′3′-cGAMP” value in assay [2] (setting [3]) is on record as 127%.

Turning to `Nc1nc2c(ncn2[C@@H]2O[C@@H]3COP(=O)(O)O[C@H]4[C@@H](O)[C@H](c5cnn6c(N)ncnc56)O[C@@H]4COP(=O)(O)O[C@@H]2[C@@H]3O)c(=O)[nH]1` [Example 54, 2-amino-9-[(5R,7R,8R,12aR,14S,15S,15aS,16R)-14-(4-aminopyrazolo[1,5-a][1,3,5]triazin-8-yl)-2,10,15,16-tetrahydroxy-2,10-dioxidooctahydro-12H-5,8-methanofuro[3,2-l][1,3,6,9,11,2,10]pentaoxadiphosphacyclotetradecin-7-yl]-1,9-dihydro-6H-purin-6-one], in assay [1], the EC50 is below 1 nM. In addition, the “% Effect at 30 μM relative to 2′3′-cGAMP” value in assay [2] is recorded as 83%.

Consider `Nc1nc2c(ncn2[C@@H]2O[C@@H]3COP(=O)(O)O[C@H]4[C@@H](O)[C@H](n5nnc6c(N)ncnc65)O[C@@H]4COP(=O)(O)O[C@@H]2[C@@H]3O)c(=O)[nH]1` [Example 55, 2-amino-9-[(5R,7R,8R,12aR,14R,15R,15aS,16R)-14-(7-amino-3H-[1,2,3]triazolo[4,5-d]pyrimidin-3-yl)-2,10,15,16-tetrahydroxy-2,10-dioxidooctahydro-12H-5,8-methanofuro[3,2-l][1,3,6,9,11,2,10]pentaoxadiphosphacyclotetradecin-7-yl]-1,9-dihydro-6H-purin-6-one], for which the EC50 in assay [1] stood at 55.3 nM. For the same compound, the “% Effect at 30 μM relative to 2′3′-cGAMP” value in assay [2] (setting [3]) came out at 83%.

Turning to `CCc1ncnc2c1ncn2[C@@H]1O[C@@H]2COP(=O)(O)O[C@@H]3[C@H](O)[C@@H](COP(=O)(O)O[C@H]2[C@H]1O)O[C@H]3n1cnc2c(=O)[nH]c(N)nc21` [Example 56, 2-amino-9-[(5R,7R,8R,12aR,14R,15R,15aS,16R)-14-(6-ethyl-9H-purin-9-yl)-2,10,15,16-tetrahydroxy-2,10-dioxidooctahydro-12H-5,8-methanofuro[3,2-l][1,3,6,9,11,2,10]pentaoxadiphosphacyclotetradecin-7-yl]-1,9-dihydro-6H-purin-6-one], the EC50 in assay [1] amounted to 89.4 nM. For the same compound, the “% Effect at 30 μM relative to 2′3′-cGAMP” value in assay [2] (setting [3]) worked out at 64%.

Regarding `COCCc1ncnc2c1ncn2[C@@H]1O[C@@H]2COP(=O)(O)O[C@@H]3[C@H](O)[C@@H](COP(=O)(O)O[C@H]2[C@H]1O)O[C@H]3n1cnc2c(=O)[nH]c(N)nc21` [Example 57, 2-amino-9-{(5R,7R,8R,12aR,14R,15R,15aS,16R)-2,10,15,16-tetrahydroxy-14-[6-(2-methoxyethyl)-9H-purin-9-yl]-2,10-dioxidooctahydro-12H-5,8-methanofuro[3,2-l][1,3,6,9,11,2,10]pentaoxadiphosphacyclotetradecin-7-yl}-1,9-dihydro-6H-purin-6-one], the EC50 in assay [1] came to 438 nM. In addition, the “% Effect at 30 μM relative to 2′3′-cGAMP” value in assay [2] (setting [3]) was 7%.

Consider `Nc1ncnc2c1ncn2[C@@H]1O[C@@H]2COP(=O)(O)O[C@@H]3[C@H](O)[C@@H](COP(=O)(O)O[C@H]2[C@H]1O)O[C@H]3n1cnc2c(=O)[nH]ccc21` [Example 58, 1-[(5R,7R,8R,12aR,14R,15R,15aS,16R)-14-(6-amino-9H-purin-9-yl)-2,10,15,16-tetrahydroxy-2,10-dioxidooctahydro-12H-5,8-methanofuro[3,2-l][1,3,6,9,11,2,10]pentaoxadiphosphacyclotetradecin-7-yl]-1,5-dihydro-4H-imidazo[4,5-c]pyridin-4-one], for which the EC50 in assay [1] is 3.1 nM. The “% Effect at 30 μM relative to 2′3′-cGAMP” value in assay [2] (setting [3]) was 92%.
